Measurements reported in patent US20110082157A1, “Piperidinylamino-Thieno [2,3-D] Pyrimidine Compounds” (priority 2004, published 2011).
Counter-ions that a name gives are not always drawn. Like-named read-outs stand apart in the source and are kept apart here.

Legend:
hERG = hERG (Homo sapiens, UniProt Q12809); experiment: hERG % inhibition at 1 uM
5HT2B = 5HT2B (Homo sapiens, UniProt P41595); experiment: Functional activity IC50 (5HT2B antagonist); type: cell-based
Rat pK = settings: in vivo; for bioavailability: read-out: Rat pK: % F
HLM T1/2 = settings: human, liver microsomes
% Protein Binding = type: in vitro ADME
D4.4 = biological target: T1, D4.4 (Homo sapiens, UniProt P21917); experiment: D4.4 binding (Ki)
T1 sequence (P21917 1-419): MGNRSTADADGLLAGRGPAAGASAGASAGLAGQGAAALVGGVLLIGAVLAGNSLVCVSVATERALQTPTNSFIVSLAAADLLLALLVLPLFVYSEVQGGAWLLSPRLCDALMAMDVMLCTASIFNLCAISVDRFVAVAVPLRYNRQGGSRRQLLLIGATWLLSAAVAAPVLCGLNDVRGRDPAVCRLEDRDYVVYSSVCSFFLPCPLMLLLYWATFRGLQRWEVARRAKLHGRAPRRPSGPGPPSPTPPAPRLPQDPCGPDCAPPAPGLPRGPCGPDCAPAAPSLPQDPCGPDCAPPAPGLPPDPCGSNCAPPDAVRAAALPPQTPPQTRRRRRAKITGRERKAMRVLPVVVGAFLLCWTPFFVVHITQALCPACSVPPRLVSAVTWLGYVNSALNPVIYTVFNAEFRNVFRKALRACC

IP3 = experiment: IC50 (IP3); type: cell-based
5HT1A [1] = biological target: T2, 5HT1A (Homo sapiens, UniProt P08908); experiment: Functional activity 5HT1A; type: cell-based
T2 sequence (P08908 1-422): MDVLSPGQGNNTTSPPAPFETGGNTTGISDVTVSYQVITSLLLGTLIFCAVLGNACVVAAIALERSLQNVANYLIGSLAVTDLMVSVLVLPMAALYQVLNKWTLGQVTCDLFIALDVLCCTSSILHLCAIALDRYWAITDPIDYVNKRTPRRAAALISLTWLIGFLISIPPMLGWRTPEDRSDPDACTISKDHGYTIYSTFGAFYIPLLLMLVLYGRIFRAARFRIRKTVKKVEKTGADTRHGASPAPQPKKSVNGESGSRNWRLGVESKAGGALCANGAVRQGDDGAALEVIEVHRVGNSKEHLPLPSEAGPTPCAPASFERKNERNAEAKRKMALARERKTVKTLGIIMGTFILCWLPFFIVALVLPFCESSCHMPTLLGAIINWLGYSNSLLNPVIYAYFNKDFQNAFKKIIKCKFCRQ

5HT2A [2] = biological target: T3, 5HT2A (Homo sapiens, UniProt P28223); experiment: Functional activity 5HT2A; type: cell-based
T3 sequence (P28223 whole entry, species assumed): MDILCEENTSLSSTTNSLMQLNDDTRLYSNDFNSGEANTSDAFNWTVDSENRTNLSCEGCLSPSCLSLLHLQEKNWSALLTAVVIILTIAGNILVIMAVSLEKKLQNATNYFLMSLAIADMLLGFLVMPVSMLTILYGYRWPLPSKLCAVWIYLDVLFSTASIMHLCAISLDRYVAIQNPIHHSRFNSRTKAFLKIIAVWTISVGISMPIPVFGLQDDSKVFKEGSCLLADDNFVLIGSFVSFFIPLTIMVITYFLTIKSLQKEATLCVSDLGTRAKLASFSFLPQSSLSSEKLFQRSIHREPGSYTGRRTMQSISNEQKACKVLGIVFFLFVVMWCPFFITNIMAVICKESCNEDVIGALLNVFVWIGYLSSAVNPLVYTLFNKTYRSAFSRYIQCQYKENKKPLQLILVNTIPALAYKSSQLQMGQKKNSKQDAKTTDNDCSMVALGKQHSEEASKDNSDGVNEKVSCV

D2S [3] = biological target: T4, D2S (Homo sapiens, UniProt P14416); experiment: Functional activity D2S; type: cell-based
T4 sequence (P14416 1-414 isoform P14416-2): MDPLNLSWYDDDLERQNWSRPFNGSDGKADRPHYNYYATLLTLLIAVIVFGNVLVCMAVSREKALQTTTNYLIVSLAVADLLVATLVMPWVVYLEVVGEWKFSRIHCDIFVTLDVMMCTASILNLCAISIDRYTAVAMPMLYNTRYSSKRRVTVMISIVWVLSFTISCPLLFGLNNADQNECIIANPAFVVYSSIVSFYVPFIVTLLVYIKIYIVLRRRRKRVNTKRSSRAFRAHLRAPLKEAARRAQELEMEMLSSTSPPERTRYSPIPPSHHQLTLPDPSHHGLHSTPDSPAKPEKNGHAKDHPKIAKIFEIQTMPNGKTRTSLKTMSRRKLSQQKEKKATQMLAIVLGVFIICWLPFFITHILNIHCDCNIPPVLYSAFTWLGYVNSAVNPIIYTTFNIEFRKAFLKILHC

D2L = D2L (Homo sapiens, UniProt P14416); experiment: Functional activity D2L; type: cell-based
D2L, sequence (P14416 whole entry): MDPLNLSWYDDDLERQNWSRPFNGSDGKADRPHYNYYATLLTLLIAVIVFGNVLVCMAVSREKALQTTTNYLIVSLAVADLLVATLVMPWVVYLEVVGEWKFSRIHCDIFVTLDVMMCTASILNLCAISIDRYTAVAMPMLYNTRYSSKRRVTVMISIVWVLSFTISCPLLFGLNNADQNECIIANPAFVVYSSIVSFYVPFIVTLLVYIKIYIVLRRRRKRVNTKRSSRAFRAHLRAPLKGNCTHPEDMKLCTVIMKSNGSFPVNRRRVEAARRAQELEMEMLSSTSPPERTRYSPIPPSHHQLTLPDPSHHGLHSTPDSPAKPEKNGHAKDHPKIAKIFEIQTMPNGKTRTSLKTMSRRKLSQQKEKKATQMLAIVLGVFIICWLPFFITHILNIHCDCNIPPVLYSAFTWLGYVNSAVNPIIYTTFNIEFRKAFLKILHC

5HT1A [4] = biological target: T2, 5HT1A; experiment: 5HT1A binding (Ki)
D3 = D3 (Homo sapiens, UniProt P35462); experiment: D3 binding (Ki)
D3, sequence (P35462 whole entry): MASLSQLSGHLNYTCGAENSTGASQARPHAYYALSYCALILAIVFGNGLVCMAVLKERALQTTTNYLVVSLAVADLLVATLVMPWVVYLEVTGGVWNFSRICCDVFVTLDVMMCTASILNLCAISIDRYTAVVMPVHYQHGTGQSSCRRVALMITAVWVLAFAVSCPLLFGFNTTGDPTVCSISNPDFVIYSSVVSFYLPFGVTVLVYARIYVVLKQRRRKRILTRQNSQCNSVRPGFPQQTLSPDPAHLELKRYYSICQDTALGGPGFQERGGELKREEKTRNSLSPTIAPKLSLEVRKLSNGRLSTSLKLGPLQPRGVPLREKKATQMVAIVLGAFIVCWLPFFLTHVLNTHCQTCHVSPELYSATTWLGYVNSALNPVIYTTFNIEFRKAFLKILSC

5HT2A [5] = biological target: T3, 5HT2A; experiment: 5HT2A binding (Ki)
AMES Test = type: cell-based
D2S [6] = biological target: T4, D2S; experiment: D2S binding (Ki)
s 1 = s 1 (Homo sapiens, UniProt Q99720); experiment: s 1 binding (Ki)
s 1, sequence (Q99720 whole entry): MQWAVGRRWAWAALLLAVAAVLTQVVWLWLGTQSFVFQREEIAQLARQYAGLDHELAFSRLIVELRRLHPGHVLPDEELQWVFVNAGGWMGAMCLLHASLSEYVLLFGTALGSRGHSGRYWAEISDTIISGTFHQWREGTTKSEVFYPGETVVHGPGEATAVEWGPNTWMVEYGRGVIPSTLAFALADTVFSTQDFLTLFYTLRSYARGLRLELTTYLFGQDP

Na chan = experiment: Na channel binding (Ki)
D1 = D1 (Homo sapiens, UniProt P21728); experiment: D1 binding (Ki)
D1, sequence (P21728 whole entry): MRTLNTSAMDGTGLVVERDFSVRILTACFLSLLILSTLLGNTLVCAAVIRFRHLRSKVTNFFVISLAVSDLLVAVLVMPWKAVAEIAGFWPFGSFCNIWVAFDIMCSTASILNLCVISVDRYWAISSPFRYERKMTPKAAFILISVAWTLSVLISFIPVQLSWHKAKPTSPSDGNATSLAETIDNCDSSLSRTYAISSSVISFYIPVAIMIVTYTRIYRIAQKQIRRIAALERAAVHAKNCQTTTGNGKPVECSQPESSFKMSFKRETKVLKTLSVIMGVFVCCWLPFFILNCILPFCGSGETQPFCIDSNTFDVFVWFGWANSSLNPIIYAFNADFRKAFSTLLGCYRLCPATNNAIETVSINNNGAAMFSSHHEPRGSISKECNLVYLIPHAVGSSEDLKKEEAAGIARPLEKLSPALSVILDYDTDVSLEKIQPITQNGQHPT

Mouse pK = settings: in vivo
D2 = D2 (Homo sapiens, UniProt P14416); experiment: Functional activity D2 (agonist / antagonist); type: cell-based
D2, sequence (P14416 whole entry): as the sequence (P14416 whole entry) above

D4 = biological target: T5, D4 (Homo sapiens, UniProt P21917); experiment: D4 binding (Ki)
T5 sequence (P21917 1-419): T1 sequence (P21917 1-419)

[7] = iv, read-out: Rat pK: T1/2 (iv)
[8] = po, read-out: Rat pK: T1/2 (po)

5HT2B, sequence (P41595 whole entry, species assumed): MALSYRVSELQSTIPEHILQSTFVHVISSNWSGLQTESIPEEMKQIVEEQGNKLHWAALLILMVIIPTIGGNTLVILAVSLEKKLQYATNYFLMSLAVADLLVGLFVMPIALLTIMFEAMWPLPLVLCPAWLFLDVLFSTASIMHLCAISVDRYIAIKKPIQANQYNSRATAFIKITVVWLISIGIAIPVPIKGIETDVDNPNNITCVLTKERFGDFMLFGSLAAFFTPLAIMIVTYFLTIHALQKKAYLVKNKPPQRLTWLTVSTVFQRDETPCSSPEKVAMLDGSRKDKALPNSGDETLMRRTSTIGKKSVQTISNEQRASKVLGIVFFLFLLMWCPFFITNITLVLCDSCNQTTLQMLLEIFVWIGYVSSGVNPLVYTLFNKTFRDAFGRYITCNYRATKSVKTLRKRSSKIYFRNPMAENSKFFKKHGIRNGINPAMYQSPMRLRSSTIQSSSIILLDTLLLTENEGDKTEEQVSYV
hERG, sequence (Q12809 whole entry): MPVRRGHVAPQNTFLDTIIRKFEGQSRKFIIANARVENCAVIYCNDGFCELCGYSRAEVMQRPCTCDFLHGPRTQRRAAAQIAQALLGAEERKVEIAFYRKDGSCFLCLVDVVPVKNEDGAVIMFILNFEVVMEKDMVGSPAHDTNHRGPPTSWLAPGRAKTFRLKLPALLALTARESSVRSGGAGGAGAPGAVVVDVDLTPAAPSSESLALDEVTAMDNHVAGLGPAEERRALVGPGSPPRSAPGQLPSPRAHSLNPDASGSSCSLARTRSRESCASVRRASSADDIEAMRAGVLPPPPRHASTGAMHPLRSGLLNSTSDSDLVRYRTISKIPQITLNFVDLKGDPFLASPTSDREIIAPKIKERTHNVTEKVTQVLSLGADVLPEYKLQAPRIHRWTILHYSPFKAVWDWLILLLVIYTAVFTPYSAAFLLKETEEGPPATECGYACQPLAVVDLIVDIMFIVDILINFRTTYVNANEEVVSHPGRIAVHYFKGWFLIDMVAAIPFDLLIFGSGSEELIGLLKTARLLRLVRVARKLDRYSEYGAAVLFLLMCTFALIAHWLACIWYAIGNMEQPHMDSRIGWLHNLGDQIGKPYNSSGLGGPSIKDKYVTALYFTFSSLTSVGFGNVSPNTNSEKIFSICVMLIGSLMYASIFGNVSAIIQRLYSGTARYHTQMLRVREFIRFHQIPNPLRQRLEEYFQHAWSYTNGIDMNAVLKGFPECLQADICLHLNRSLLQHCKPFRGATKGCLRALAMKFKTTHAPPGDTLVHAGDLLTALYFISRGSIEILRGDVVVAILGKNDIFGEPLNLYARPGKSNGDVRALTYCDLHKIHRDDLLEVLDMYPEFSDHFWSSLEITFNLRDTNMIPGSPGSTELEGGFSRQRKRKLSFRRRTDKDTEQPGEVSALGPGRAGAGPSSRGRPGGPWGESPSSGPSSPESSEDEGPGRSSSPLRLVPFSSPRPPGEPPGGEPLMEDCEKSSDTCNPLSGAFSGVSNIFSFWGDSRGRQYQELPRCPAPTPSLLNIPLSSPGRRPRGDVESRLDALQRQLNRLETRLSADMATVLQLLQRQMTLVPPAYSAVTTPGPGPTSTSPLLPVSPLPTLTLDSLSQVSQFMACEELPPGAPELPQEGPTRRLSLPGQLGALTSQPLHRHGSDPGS

## CC(C)Cc1cc2c(NC3CCN(C(C)c4cc(F)cc(F)c4)CC3)ncnc2s1 (centres unmarked) [Example B18, N-(1-(1-(3,5-difluorophenyl)ethyl)piperidin-4-yl)-6-isobutylthieno[2,3-d]pyrimidin-4-amine, dihydrochloride]
hERG
  hERG (% Inhibition at 1 uM): 31%
5HT2B
  IC50: 5700 nM
Rat pK; [7]
  half-life: 12 min
Rat pK; po
  bioavailability: 3%
Rat pK; [8]
  half-life: 24 min
HLM T1/2
  half-life: 7 min
% Protein Binding
  fraction unbound: 0.062

## Fc1cc(F)cc(CN2CCC(Nc3ncnc4sc(Cl)cc34)CC2)c1.O=C(O)/C=C\C(=O)O [Example B34, N-(1-(3,5-difluorobenzyl)piperidin-4-yl)-6-chlorothieno[2,3-d]pyrimidin-4-amine, monomaleate]
D4.4
  Ki: 3.4 nM
hERG
  hERG (% Inhibition at 1 uM): 29.4%
IP3
  IC50: 0.74 nM
5HT1A [1]
  Functional Activity IC50 (5HT1A): Not Active
5HT2A [2]
  Functional Activity IC50 (5HT2A): Not Active
D2S [3]
  IC50: 63.3 nM
5HT2B
  IC50: 680 nM
D2L
  IC50: 17.2 nM
5HT1A [4]
  Ki: 35 nM
Rat pK; [7]
  half-life: 24 min
Rat pK; po
  bioavailability: 29.1%
Rat pK; [8]
  half-life: 66 min
D3
  Ki: 140 nM
5HT2A [5]
  Ki: 260 nM
AMES Test
  AMES Test: Negative
D2S [6]; NA: Not Active
  Ki: 66 nM
% Protein Binding
  fraction unbound: 0.01

## Cc1c(Cl)sc2ncnc(NC3CCN(Cc4cccc(F)c4)CC3)c12.O=C(O)/C=C\C(=O)O [Example B38, N-(1-(3-fluorobenzyl)piperidin-4-yl)-6-chloro-5-methylthieno[2,3-d]pyrimidin-4-amine, monomaleate]
hERG
  hERG (% Inhibition at 1 uM): 78.1%
IP3
  IC50: 2.27 nM
5HT2B
  IC50: 560 nM
Rat pK; [7]
  half-life: 24 min
Rat pK; po
  bioavailability: 18.2%
Rat pK; [8]
  half-life: 54 min
D2S [6]; NA: Not Active
  Ki: 170 nM
% Protein Binding
  fraction unbound: 0.062

## Fc1cccc(CN2CCC(Nc3ncnc4sc(Cl)cc34)CC2)c1.O=C(O)/C=C\C(=O)O [Example B42, N-(1-(3-fluorobenzyl)piperidin-4-yl)-6-chlorothieno[2,3-d]pyrimidin-4-amine, monomaleate]
S 1
  Ki: 6.7 nM
D4.4
  Ki: 4.7 nM
hERG
  hERG (% Inhibition at 1 uM): 50.1%
IP3
  IC50: 1.7 nM
5HT1A [1]
  Functional Activity IC50 (5HT1A): Not Active
5HT2A [2]
  IC50: 340 nM
Na chan
  Ki: 250 nM
D2S [3]
  IC50: 292 nM
5HT2B
  IC50: 110 nM
D2L
  IC50: 162 nM
5HT1A [4]
  Ki: 17 nM
Rat pK; [7]
  half-life: 24 min
Rat pK; po
  bioavailability: 22.4%
Rat pK; [8]
  half-life: 72 min
D3
  Ki: 26 nM
5HT2A [5]
  Ki: 52 nM
AMES Test
  AMES Test: Negative
D2S [6]; NA: Not Active
  Ki: 170 nM
% Protein Binding
  fraction unbound: 0.017

## N#Cc1cccc(CN2CCC(Nc3ncnc4sc(Cl)cc34)CC2)c1 [Example B43, 3-((4-(6-chlorothieno [2,3-d]pyrimidin-4-ylamino)piperidin-1-yl)methyl) benzonitrile, monomaleate]
D1
  Ki: 1200 nM
S 1
  Ki: 11 nM
D4.4
  Ki: 25 nM
hERG
  hERG (% Inhibition at 1 uM): 47.3%
Mouse pK; ip, read-out: Mouse pK: % F
  bioavailability: 87%
Mouse pK; ip, read-out: Mouse pK: T1/2 (ip)
  half-life: 30 min
Mouse pK; iv, read-out: Mouse pK: T1/2 (iv)
  half-life: 26 min
IP3
  IC50: 1.48 nM
Na chan
  Ki: 970 nM
5HT2B
  IC50: 17.5 nM
5HT1A [4]
  Ki: 280 nM
Rat pK; [7]
  half-life: 44.4 min
Rat pK; po
  bioavailability: 17.2%
Rat pK; [8]
  half-life: 91.8 min
D3
  Ki: 1300 nM
D2; agonist
  EC50: 920 nM
D2; antagonist
  IC50 (D2): No antagonist activity
AMES Test
  AMES Test: Negative
HLM T1/2
  half-life: 22 min
D2S [6]
  Ki: 1000 nM
% Protein Binding
  fraction unbound: 0.018

## Fc1ccc(-c2c(Cl)sc3ncnc(NC4CCN(Cc5cc(F)cc(F)c5)CC4)c23)cc1 [Example B48, N-(1-(3,5-difluorobenzyl)piperidin-4-yl)-6-chloro-5-(4-fluorophenyl) thieno[2,3-d]pyrimidin-4-amine, monomaleate]
5HT1A [4]
  Ki (5HT1A): not Active
HLM T1/2
  half-life: < 15 min
D2S [6]
  Ki: 1100 nM

## N#Cc1cc(CN2CCC(Nc3ncnc4sc(Cl)cc34)CC2)ccc1F [Example B50, 5-((4-(6-chlorothieno [2,3-d]pyrimidin-4-ylamino)piperidin-1-yl)methyl)-2-fluorobenzonitrile, monomaleate]
D4.4
  Ki: 5.4 nM
hERG
  hERG (% Inhibition at 1 uM): 23.7%
5HT2B
  IC50: 27 nM
5HT1A [4]
  Ki: 100 nM
Rat pK; [7]
  half-life: 37.2 min
Rat pK; po
  bioavailability: 22.6%
Rat pK; [8]
  half-life: 53.4 min
AMES Test
  AMES Test: Negative
HLM T1/2
  half-life: 28 min
D2S [6]; NA: Not Active
  Ki: 670 nM

## CNC(=O)c1cccc(CN2CCC(Nc3ncnc4sc(Cl)cc34)CC2)c1 [Example B55, 3-((4-(6-chlorothieno [2,3-d]pyrimidin-4-ylamino)piperidin-1-yl)methyl)-N-methylbenzamide, monomaleate]
D4
  Ki: 330 nM
HLM T1/2
  half-life: 34 min

## O=S(=O)(c1cccc(CN2CCC(Nc3ncnc4sc(Cl)cc34)CC2)c1)C(F)(F)F [Example B56, N-(1-(3-(trifluoromethylsulfonyl)benzyl)piperidin-4-yl)-6-chlorothieno[2,3-d] pyrimidin-4-amine, monomaleate]
D4; read-out: Ki (D4)
  Ki: 180 nM
HLM T1/2
  half-life: < 15 min
D2S [6]
  Ki: 3100 nM

## CN(C)C(=O)c1cccc(CN2CCC(Nc3ncnc4sc(Cl)cc34)CC2)c1 [Example B57, 3-((4-(6-chlorothieno[2,3-d]pyrimidin-4-ylamino)piperidin-1-yl)methyl)-N,N-dimethylbenzamide, monomaleate]
D4; read-out: Ki (D4)
  Ki: 540 nM
HLM T1/2
  half-life: 24 min

## CS(=O)(=O)c1cccc(CN2CCC(Nc3ncnc4sc(Cl)cc34)CC2)c1 [Example B58, N-(1-(3-(methylsulfonyl)benzyl)piperidin-4-yl)-6-chlorothieno[2,3-d]pyrimidin-4-amine, monomaleate]
D4; read-out: Ki (D4)
  Ki: 430 nM
HLM T1/2
  half-life: 27 min
D2S [6]
  Ki: > 10000 nM
